Measured values from US20110104159A1, “COMPOSITIONS AND METHODS FOR TREATING, CONTROLLING, REDUCING, AMELIORATING, OR PREVENTING ALLERGY” (priority 2006, published 2011).
Values joined by “and” are separate entries in the source; they are usually repeats but may differ in a detail not shown here. Equal values may be shown once.

Key:
[1] = tested on: rabbit paracentesis model; experiment: Clinical evaluation by slit lamp (clinical score), rabbit paracentesis model; type: in vivo; parameters: key to Clinical Score −180 min / Clinical Score −5 min / Clinical Score +115 min: 0: normal; 1: discrete dilatation of iris and conjunctival vessels; 2: moderate dilatation of iris and conjunctival vessels; 3: intense iridal hyperemia with flare in the anterior chamber; 4: intense iridal hyperemia with flare in the anterior chamber and presence of fibrinous exudates; conditions: 0.5% topical
[2] = tested on: MPO; experiment: Myeloperoxidase (MPO) activity in iris-ciliary body; type: in vivo, Rabbit
Protocol: 2.3.2.1 Phosphate Buffer (50 mM; pH=6)
3.9 g of NaH2PO4 2H2O were dissolved in a volumetric flask to 500 ml with water. The pH was adjusted to pH=6 with 3N NaOH.
0.5 g of hexa-decyl-trimethyl-ammonium bromide was dissolved in 100 ml phosphate buffer.
The solution was prepared freshly. Ten microliters of H2O2 (30 wt. %) were diluted to 1 ml with water (solution A). 7.5 mg o-dianisidine 2HCl were dissolved in 45 ml of phosphate buffer and 75 μl of solution A were added.
(§1) Each rabbit was placed in a restraint device and tagged with the alphanumeric code. The formulations were instilled (50 μl) into the conjunctival sac of both eyes 180, 120, 90 and 30 min before the first paracentesis; then 15, 30, 90 min after the first paracentesis. To perform the first paracentesis the animals were anaesthetized by intravenous injection of 5 mg/kg Zoletil® (Virbac; 2.5 mg/kg tiletamine HCl and 2.5 mg/kg zolazepam HCl) and one drop of local anesthetic (Novesina®, Novartis) was administered to the eye. Anterior chamber paracentesis was performed with a 26 G needle attached to a tuberculin syringe; the needle was introduced into the anterior chamber through the cornea, taking care not to damage the tissues. Two hours after the first paracentesis, the animals were sacrificed with 0.4 ml Tanax® (Intervet International B.V.) and the second paracentesis was performed. About 100 μl of aqueous humor were removed at the second paracentesis. Aqueous humor was immediately split in four aliquots and stored at −80° C. until analysis. Then both eyes were enucleated and the iris-ciliary body was carefully excised, placed in polypropylene tubes, and stored at −80° C. until analysis.
The activity of MPO was measured as previously described by Williams et al. The iris-ciliary bodies were carefully dried, weighed and immersed in 1 ml of hexa-decyl-trimethyl-ammonium bromide solution. Then, the samples were sonicated for 10 sec on ice by a ultrasound homogenizer (HD 2070, Bandelin electronic), freeze-thawed three times, sonicated for 10 sec and centrifuged at 14,000 g for 10 min to remove cellular debris. An aliquot of the supernatant (40-200 μl) was diluted to 3 ml with the o-dianisidine 2HCl/H2O2 solution. The change in absorbance at 460 nm was continuously monitored for 5 min by a spectrophotometer (UV/Vis Spectrometer Lambda EZ 201; Perkin Elmer). The slope of the line (Δ/min) was determined for each sample and used to calculate the number of units of MPO in the tissue as follows:
where ε=11.3 mM^−1. Values were expressed as units of MPO/g of tissue.

[3] = tested on: PGE2; experiment: Prostaglandin E2 (PGE2) measurement in aqueous humor; type: in vivo, Rabbit; conditions: 0.5% topical
Protocol: as §1
For the quantitative determination of PGE2 in the aqueous humor we used the PGE2 Immunoassay kit (R&D Systems; Cat. No. KGE004; Lot. No. 240010). Eleven microliters or 16 μl of aqueous humor were diluted to 110 μl or 160 μl with the calibrator diluent solution provided with the kit. One hundred microliters of samples and of standards were load into a 96-well plate and recorded in a plate layout. Samples were treated following the assay procedure described in the kit. A microplate reader (GDV, Italy; model DV 990 B/V6) set at 450 nm (wavelength correction at 540 nm) was used for making the calibration and analyzing the samples.

[4] = tested on: rabbit paracentesis model; experiment: Pupillary diameter measurement, rabbit paracentesis model; type: in vivo; conditions: 0.5% topical, individual eye
Protocol: as §1
The pupillary diameter of both eyes was measured with a Castroviejo caliper 180 min and 5 min before the first paracentesis and 5 min before the second paracentesis.

[5] = tested on: leukocytes (PMN); experiment: Leukocytes (PMN) measurement in aqueous humor; type: in vivo, Rabbit; conditions: 0.5% topical
Protocol: as §1
For the determination of the number of leukocytes we used a haemocytometer (Improved Neubauer Chamber; Brigth-line, Hausser Scientific) and a Polyvar 2 microscope (Reichert-Jung).

[6] = tested on: protein concentration in the aqueous humor; experiment: Protein measurement in aqueous humor; type: in vivo, Rabbit; conditions: 0.5% topical
Protocol: as §1
For protein concentration determination in the aqueous humor we used the Protein Quantification Kit (Fluka; Cat. No. 77371; Lot. No. 1303129). Five microliters of aqueous humor were diluted to 100 μl with water. Twenty microliters of samples and of standards were load into a 96-well plate and recorded in a plate layout. Samples were treated following the assay procedure described in the kit. A microplate reader (GDV, Italy; model DV 990 B/V6) set at 670 nm was used for making the calibration and analyzing the samples.

[7] = tested on: EoL-1 cells; experiment: EoL-1 cell apoptosis (annexin V/PI flow cytometry); type: cell-based, human; conditions: 10 μM co-incubated
Protocol: EoL-1 cells were grown in RPMI-1640+L-glutamine medium (containing 10% FBS) and kept at 37° C. in a 5% CO2 humidified atmosphere. Before each experiment, the cells were stabilized in serum-depleted media (0.1% FBS) for 24 h before treatments.

[8] = tested on: peripheral human blood eosinophils; experiment: Spontaneous eosinophil apoptosis (annexin V/PI flow cytometry); conditions: 10 μM co-incubated
Protocol: To assess glucocorticoid-induced apoptosis, cells were double-stained with annexin V-Fluos and propidium iodide (PI). Annexin V-Fluos was used according to the manufacturer's instructions.
The suspension was incubated at room temperature for 10 min and analyzed in the BD FACS Canto II flow cytometry system (Becton, Dickinson and Company, New Jersey, USA). Eosinophils and EoL-1 cells were gated on the basis of their forward and side light scatter, with cell debris excluded from analysis. Apoptotic cells were defined as annexin V^+/PI^− cells. A two-way dot plot was prepared to verify the percentage of apoptotic cells. Annexin V^−/PI^− cells were used as control and annexin V^+/PI^+ cells were considered necrotic.
All data are expressed as mean±S.E.M. for the number of experiments indicated. Statistical comparisons were made by ANOVA and post-hoc Newman-Keuls test with differences of P<0.05 considered significant.

CCOC(=O)O[C@]1(C(=O)OCCl)CC[C@H]2[C@@H]3CCC4=CC(=O)C=C[C@]4(C)[C@H]3[C@@H](O)C[C@@]21C [LE, loteprednol etabonate, reference compound]
Clinical Score −5 min ([1]; 5 min before first paracentesis, individual eye, scale 0-4): 0 | Clinical Score +115 min ([1]; 5 min before second paracentesis, individual eye, scale 0-4): 2 (2×) and 1 (6×) | Percentage of eyes with clinical score 1 ([1]; +115 min, 8 eyes): 75% | Percentage of eyes with clinical score 2 ([1]; +115 min, 8 eyes): 25% | Clinical Score −180 min ([1]; basal, individual eye, scale 0-4): 0 | Clinical score, statistical comparison with CTR ([1]; p<0.05): significant difference | Percentage of eyes with clinical score 0 ([1]; −5 min, 8 eyes): 100% | Percentage of eyes with clinical score 0 ([1]; −180 min, 8 eyes): 100% | MPO activity in iris-ciliary body, statistical comparison with CTR ([2]; 0.5% topical, p<0.001): statistical significance | Mean MPO Unit/g (MPO activity in iris-ciliary body samples) ([2]; 0.5% treatment, group mean, after the second paracentesis): 0.661 Unit/g | MPO Unit/g (raw data of MPO activity in iris-ciliary body samples) ([2]; 0.5% treatment, individual eyes (DX/SX) of rabbits, samples collected after the second paracentesis): 0.30 Unit/g and 0.51 Unit/g and 0.81 Unit/g and 0.60 Unit/g and 0.73 Unit/g and 1.01 Unit/g | PGE2 in aqueous humor at the second paracentesis, Mean ([3]; group mean): 0.672 ng/mL | PGE2 in aqueous humor at the second paracentesis ([3]; individual eye sample): ^2N/D and 0.23 ng/ml and 0.68 ng/ml and 1.10 ng/ml | PGE2 in aqueous humor, statistical comparison with CTR ([3]; p<0.05): statistically significant versus CTR | Pupillary diameter T2: −5 min ([4]; 5 min before first paracentesis): 6.0 mm (3×) and 6.5 mm (5×) | Pupillary diameter T3: +115 min ([4]; 5 min before second paracentesis): 4.5 mm and 5.0 mm (2×) and 5.5 mm (2×) and 6.0 mm (3×) | Pupillary diameter Δ(T3 − T1) ([4]; +115 min minus −180 min): −1.5 mm (2×) and −1.0 mm (3×) and 0.0 mm and −0.5 mm (2×) | Pupillary diameter T1: −180 min ([4]; basal): 6.0 mm (3×) and 6.5 mm (5×) | PMN in aqueous humor at the second paracentesis, Mean ([5]; group mean): 28.333 number/μl | PMN in aqueous humor at the second paracentesis ([5]; individual eye sample): 40 number/μl (2×) and 20 number/μl (3×) and 30 number/μl | Protein in aqueous humor at the second paracentesis, Mean ([6]; group mean): 33.905 mg/mL | Protein in aqueous humor at the second paracentesis ([6]; individual eye sample): 36.14 mg/mL and 39.10 mg/mL and 34.69 mg/mL and 26.10 mg/mL and 26.30 mg/mL and 28.16 mg/mL and 40.90 mg/mL and 39.85 mg/mL

CC#C[C@]1(O)CC[C@H]2[C@@H]3CCC4=CC(=O)CCC4=C3[C@@H](c3ccc(N(C)C)cc3)C[C@@]21C [mifepristone, reference compound]
Effect on apoptosis induced by 5000 nM BOL-303242-X or dexamethasone in EoL-1 cells [7]: prevented apoptosis | Effect on apoptosis induced by 5000 nM BOL-303242-X or dexamethasone in human eosinophils [8]: prevented apoptosis
